Measured values reported in patent US10053667B2, “Differentiation of human pluripotent stem cells to multipotent neural crest cells” (UNIVERSITY OF GEORGIA RESEARCH FOUNDATION, INC., priority 2010, dated 2018).
Entries after “also recorded” stand apart in the source; their conditions may differ.

What was measured:
Type in all cases: cell-based, human
WA09 hESCs [1] = assay: hESC differentiation to neural crest-like versus neural progenitor cells, flow cytometry for p75 and Hnk1; details: for generation of Hnk1+ p75+ (Hnk1bright p75bright) neural crest-like population: WA09 hESCs treated 15 days, FIG. 2A, factors added to or omitted from SB 431542/BIO media; for proportion of Hnk1bright p75bright cells: dose-response, added to cultures treated with SB 431542 and Noggin, BIO 0-2 µM, Wnt3a 0-50 ng/ml
Procedure: (§1) NPC differentiation was performed as described (18). Briefly, cells were plated on Geltrex-coated plates in defined media without Activin A, supplemented with 20 μM SB 431542 (Tocris) and 500 ng/ml Noggin (R&D systems) for 11 days with or without 2 μM of (2′Z,3′E)-6-Bromoindirubin-3′-oxime (BIO) (GSK3 Inhibitor IX, Calbiochem), or 15 ng/ml Dickkopf (R&D Systems). For direct neural crest differentiation, cells were plated at a density of 1×10^5 cells/cm^2 in defined media lacking Activin A, supplemented with 2 μM BIO and 20 μM SB 431542 (SB media). Media was replaced every day. Additional experiments were performed by adding 25 ng/ml Wnt3a, 500 ng/ml Noggin or 5-50 ng/ml of BMP4 (R&D Systems) to SB media. For peripheral neuron differentiation, neural crest cells were plated in poly-L-ornithine/laminin or Geltrex-coated 4-well chamber slides. The following day, SB media was switched to DMEM/F12 N2 supplemented media with BDNF (10 ng/ml), GDNF (10 ng/ml), NGF (10 ng/ml), neurotrophin-3 (10 ng/ml), ascorbic acid (200 μM) and dbcAMP (0.5 mM). Cells were grown for 10-14 days and assayed by immunocytochemisty. Neural crest cells were cultured in media containing 10% fetal bovine serum and passed every 4-5 days. Osteocyte, adipocyte and chondrocyte differentiation was performed according to manufacturer directions using StemPro Osteogenesis Kit, StemPro Chondrogenesis Differentiation Kit, StemPro Adipogenesis Differentiation Kit (Invitrogen), respectively.
Cells were fixed in 4% paraformaldehyde in phosphate buffered saline (PBS) and stained with primary antibodies listed in attached Table 1 (below). Secondary antibodies were Alexa Fluor 488 and Alexa Fluor 555-conjugated (Invitrogen). DNA was visualized by staining with DAPI. For flow cytometry, one million live cells dissociated with Accutase were re-suspended in PBS and incubated for 30 minutes on ice with primary conjugated antibodies, listed in Table 1. Unconjugated p75 (neurotrophin receptor) and Hnk1 antibodies were detected with Alexa Fluor 633 and Alexa Fluor 488-conjugated secondary antibodies, respectively. Cells were analyzed using the CyAN ADP (Beckman Coulter) and FlowJo software.

β-catenin signaling = assay: Top-Flash luciferase reporter assay for β-catenin activity in hESCs; details: hESC cultures; Top-Flash normalized to Fop-Flash
Procedure: Data is expressed as the fold-increase in luciferase activity over untreated cells after normalization to the Fop-Flash control. All assays were performed in triplicate and represented as +/−standard deviation. (B) Top-Flash activity in hESCs grown in defined media treated with Wnt3a, Dkk1, Wnt3a and Dkk1 or BIO. Experiments were performed in triplicate and represented as +/−standard deviation.

WA09 hESCs [2] = assay: hESC differentiation, immunostaining for neural crest markers (p75, Ap2, Hnk1) and NPC markers (Pax6, Sox2)
Procedure: as §1, with “Briefly, cells were plated on Geltrex-coated plates in defined media without Activin A, supplemented with 20 μM SB 431542 (Tocris) and 500 ng/ml Noggin (R&D systems) for 11 days with or without 2 μM of (2′Z,3′E)-6-Bromoindirubin-3′-oxime (BIO) (GSK3 Inhibitor IX, Calbiochem), or 15 ng/ml Dickkopf (R&D Systems). For direct neural crest differentiation, cells were plated at a density of 1×10^5 cells/cm^2 in defined media lacking Activin A, supplemented with 2 μM BIO and 20 μM SB 431542 (SB media).” left out
Cells were fixed in 4% paraformaldehyde in phosphate buffered saline (PBS) and stained with primary antibodies listed in attached Table 1 (below). […] DNA was visualized by staining with DAPI. For flow cytometry, one million live cells dissociated with Accutase were re-suspended in PBS and incubated for 30 minutes on ice with primary conjugated antibodies, listed in Table 1. […] Cells were analyzed using the CyAN ADP (Beckman Coulter) and FlowJo software.

[3] = BIO added to SB 431542 and Noggin (Smad inhibition), 12 days

NC(=O)c1ccc(-c2nc(-c3ccc4c(c3)OCO4)c(-c3ccccn3)[nH]2)cc1 [SB 431542]
generation of Hnk1+ p75+ (Hnk1bright p75bright) neural crest-like population (WA09 hESCs [1]): ineffective

O=C1Nc2cc(Br)ccc2/C1=C1/Nc2ccccc2/C1=N\O [BIO, (2′Z,3′E)-6-Bromoindirubin-3′-oxime]
activation of β-catenin-dependent luciferase reporter (canonical Wnt pathway) (β-catenin signaling): activates β-catenin signaling; also recorded: efficiently activates the canonical Wnt pathway
generation of Hnk1+ p75+ (Hnk1bright p75bright) neural crest-like population (WA09 hESCs [1]): ineffective
proportion of Hnk1bright p75bright cells (WA09 hESCs [1]): increased the proportion of Hnk1^bright p75^bright cells in a dose-dependent manner
formation of Pax6+ cells (WA09 hESCs [2]; [3]): suppresses this; also recorded: severely inhibited the formation of Pax6^+ cells
percentage of p75+ cells (WA09 hESCs [2]; [3]): generates p75+ Pax6− neural crest-like cells; also recorded: markedly increasing the percentage of p75^+ cells
Sox2 expression (WA09 hESCs [2]; immunostaining, Smad signaling suppressed, range of BIO concentrations): dose-dependent response

B1: Wnt3a: recombinant Wnt protein, Wnt signaling promoter (protein, UniProt P56704 19-352, looked up)
Protein Wnt-3a: SYPIWWSLAVGPQYSSLGSQPILCASIPGLVPKQLRFCRNYVEIMPSVAEGIKIGIQECQHQFRGRRWNCTTVHDSLAIFGPVLDKATRESAFVHAIASAGVAFAVTRSCAEGTAAICGCSSRHQGSPGKGWKWGGCSEDIEFGGMVSREFADARENRPDARSAMNRHNNEAGRQAIASHMHLKCKCHGLSGSCEVKTCWWSQPDFRAIGDFLKDKYDSASEMVVEKHRESRGWVETLRPRYTYFKVPTERDLVYYEASPNFCEPNPETGSFGTRDRTCNVSSHGIDGCDLLCCGRGHNARAERRREKCRCVFHWCCYVSCQECTRVYDVHTCK
generation of Hnk1+ p75+ (Hnk1bright p75bright) neural crest-like population (WA09 hESCs [1]): can substitute for BIO
proportion of Hnk1bright p75bright cells (WA09 hESCs [1]): increased the proportion of Hnk1^bright p75^bright cells in a dose-dependent manner

B2: Noggin: BMP inhibitor protein (R&D systems) (protein, UniProt Q13253 28-232, looked up)
Noggin: QHYLHIRPAPSDNLPLVDLIEHPDPIFDPKEKDLNETLLRSLLGGHYDPGFMATSPPEDRPGGGGGAAGGAEDLAELDQLLRQRPSGAMPSEIKGLEFSEGLAQGKKQRLSKKLRRKLQMWLWSQTFCPVLYAWNDLGSRFWPRYVKVGSCFSKRSCSVPEGMVCKPSKSVHLTVLRWRCQRRGGQRCGWIPIQYPIISECKCSC
generation of Hnk1+ p75+ (Hnk1bright p75bright) neural crest-like population (WA09 hESCs [1]): no major impact

B3: Dickkopf: a Wnt antagonist (R&D Systems) (protein, UniProt O94907 32-266, looked up)
Dickkopf-related protein 1: TLNSVLNSNAIKNLPPPLGGAAGHPGSAVSAAPGILYPGGNKYQTIDNYQPYPCAEDEECGTDEYCASPTRGGDAGVQICLACRKRRKRCMRHAMCCPGNYCKNGICVSSDQNHFRGEIEETITESFGNDHSTLDGYSRRTTLSSKMYHTKGQEGSVCLRSSDCASGLCCARHFWSKICKPVLKEGQVCTKHRRKGSHGLEIFQRCYCGEGLSCRIQKDHHQASNSSRLHTCQRH
p75bright cells in NPC cultures (WA09 hESCs [1]; NPC cultures obtained by treatment with Noggin and SB 431542): decreases the p75bright population; also recorded: severely reduced the low level of p75^bright cells

B4: BMP4: bone morphogenic protein added to SB media (R&D Systems) (protein, UniProt P12644 293-408, looked up)
Bone morphogenetic protein 4: SPKHHSQRARKKNKNCRRHSLYVDFSDVGWNDWIVAPPGYQAFYCHGDCPFPLADHLNSTNHAIVQTLVNSVNSSIPKACCVPTELSAISMLYLDEYDKVVLKNYQEMVVEGCGCR
generation of Hnk1+ p75+ (Hnk1bright p75bright) neural crest-like population (WA09 hESCs [1]): suppressed the transition to an Hnk1^bright p75^bright state
